# Measurements published in article PMC10033154 (Journal of Molecular Structure, 2023).
# Target: SARS-CoV-2 3CL protease (Severe acute respiratory syndrome coronavirus 2, UniProt P0DTD1)
# Test: FRET enzyme activity inhibition assay of SARS-CoV-2 3CLpro
# Format: biochemical
structure (smiles),measurement,value
"COc1ccc(C=C[N+](=O)[O-])cc1OC [compound f, 3,4-dimethoxyl-β-nitrostyrene]",IC50,5.07 µM
